Laboratory results: patent US20230263822A1, “MODULATION OF FACTOR 11 EXPRESSION” (Ionis Pharmaceuticals, Inc., priority 2008, published 2023)

Legend:
Factor 11 activity = assay: Factor 11 protein activity, F11 assay based on clotting time (Example 45); type: in vivo, cynomolgus monkeys
Method: (§1) Groups, each consisting of two male and three female monkeys, were injected subcutaneously with ISIS 416838, ISIS 416850, ISIS 416858, ISIS 416864, or ISIS 417002 in escalating doses. Antisense oligonucleotide was administered to the monkeys at 5 mg/kg three times per a week for week 1; 5 mg/kg twice per week for weeks 2 and 3; 10 mg/kg three times per week for week 4; 10 mg/kg twice per week for weeks 5 and 6; 25 mg/kg three times per week for week 7; and 25 mg/kg twice per week for weeks 8, 9, 10, 11, and 12. One control group, consisting of two male and three female monkeys, was injected subcutaneously with PBS according to the same dosing regimen. An additional experimental group, consisting of two male and three female monkeys, was injected subcutaneously with ISIS 416850 in a chronic, lower dose regimen. Antisense oligonucleotide was administered to the monkeys at 5 mg/kg three times per week for week 1; 5 mg/kg twice per week for week 2 and 3; 10 mg/kg three times per week for week 4; and 10 mg/kg twice per week for weeks 5 to 12. Body weights were measured weekly. Blood samples were collected 14 days and 5 days before the start of treatment and subsequently once per week for Factor 11 protein activity analysis in plasma, fibrinogen measurement, PT and aPTT measurements, bleeding times, and measurement of various hematologic factors. On day 85, the monkeys were euthanized by exsanguination while under deep anesthesia, and organs harvested for further analysis.
Blood samples were collected at various time points and Factor 11 proenzyme was measured using a F11 assay based on clotting time. Clotting times were determined in duplicate with a ST4 semi-automated coagulation instrument (Diagnostica Stago, NJ). Thirty μl of citrated sample plasma diluted 1/20 in HEPES-NaCl buffer with BSA was incubated with 30 μl aPTT reagent (Automated aPTT, Organon Technika, NC) and 30 μl of citrated plasma deficient of Factor 11 (George King Bio-Medical Inc.) at 37° C. for 5 min, followed by the addition of 30 μl of 25 mM CaCl2) to initiate clotting. Results were interpolated on a standard curve of serially diluted citrated control plasma.
Results are presented in Table 118 as percent inhibition of Factor 11 activity, relative to PBS control. The ISIS oligonucleotide, ISIS 416850, given with the chronic dose regimen is distinguished from the other oligonucleotides with an asterisk (*).

fibrinogen = assay: Fibrinogen assay (Example 45); type: in vivo, cynomolgus monkeys; details: plasma
Method: as §1
Nine parts of fresh monkey plasma was collected into one part of trisodium citrate. The samples were evaluated of fibrinogen content using an ACL 9000 coagulation instrument (Instrumentation Laboratory, Italy). The ISIS oligonucleotide, ISIS 416850, given with the chronic dose regimen is distinguished from the other oligonucleotides with an asterisk (*).

[1] = Tolerability in CD1 mice: liver function, ALT, AST, bilirubin, albumin (Example 33); details: plasma, 50 mg/kg s.c. twice a week
Method: A control group of five mice was injected subcutaneously with PBS for 2 weeks. All experimental groups (i.e. ASO treated mice at 2, 4, 6 weeks) were compared to the control group (i.e. PBS, 2 weeks).
To evaluate the effect of ISIS oligonucleotides on hepatic function, plasma concentrations of transaminases were measured using an automated clinical chemistry analyzer (Hitachi Olympus AU400e, Melville, N.Y.). […] Plasma levels of bilirubin and albumin were also measured using the same clinical chemistry analyzer and expressed in mg/dL.

[2] = Body and organ weights of cynomolgus monkeys (Example 45); type: in vivo
Method: as §1
Body weights were taken once weekly throughout the dosing regimen. […] Organ weights were taken after the animals were euthanized and livers, kidneys and spleens were harvested and weighed. […] The ISIS oligonucleotide, ISIS 416850, given with the chronic dose regimen is distinguished from the other oligonucleotides with an asterisk (*).

platelet aggregation = assay: Platelet aggregation assay, ADP and/or collagen (Example 45); type: in vivo, cynomolgus monkeys
Method: as §1
Platelet aggregation was initiated by adding 1 mmol/L ADP and/or 3 μg collagen (depending on the collection day, as outlined in Table 121) to plasma samples, and was allowed to proceed for 10 minutes. Aggregation was characterized by recording the change in the electrical resistance or impedance and the change in the initial slope of aggregation after platelet shape change. The aggregation test was performed twice per sample on each collection day and the average value was taken. The ISIS oligonucleotide, ISIS 416850, given with the chronic dose regimen is distinguished from the other oligonucleotides with an asterisk (*).

[3] = day 8, chronic dose regimen (*)
[4] = day 15, chronic dose regimen (*)
[5] = day 15, escalating dose regimen
[6] = day 22, chronic dose regimen (*)
[7] = day 22, escalating dose regimen
[8] = day 29, chronic dose regimen (*)
[9] = day 29, escalating dose regimen
[10] = day 36, chronic dose regimen (*)
[11] = day 36, escalating dose regimen
[12] = day 43, chronic dose regimen (*)
[13] = day 43, escalating dose regimen
[14] = day 50, chronic dose regimen (*)
[15] = day 50, escalating dose regimen
[16] = day 57, escalating dose regimen
[17] = day 64, escalating dose regimen
[18] = day 71, escalating dose regimen
[19] = day 78, escalating dose regimen
[20] = day 85, escalating dose regimen
[21] = day −5, chronic dose regimen (*)
[22] = day −5, escalating dose regimen
[23] = day −14, chronic dose regimen (*)
[24] = day −14, escalating dose regimen

## ISIS 416850: MOE gapmer, nucleobases 1275 to 1318 of SEQ ID NO: 1 (Table 8) (antisense TGCACAGTTTCTGGCAGGCC; MOE gapmer, wing and gap sizes not given here)
Factor 11 activity; [3]
  percent inhibition of Factor 11 activity, relative to PBS control: 6%
Factor 11 activity; day 8, escalating dose regimen
  percent inhibition of Factor 11 activity, relative to PBS control: 8%
Factor 11 activity; [4]
  percent inhibition of Factor 11 activity, relative to PBS control: 13%
Factor 11 activity; [5]
  percent inhibition of Factor 11 activity, relative to PBS control: 4%
Factor 11 activity; [6]
  percent inhibition of Factor 11 activity, relative to PBS control: 12%
Factor 11 activity; [7]
  percent inhibition of Factor 11 activity, relative to PBS control: 11%
Factor 11 activity; [8]
  percent inhibition of Factor 11 activity, relative to PBS control: 20%
Factor 11 activity; [9]
  percent inhibition of Factor 11 activity, relative to PBS control: 15%
Factor 11 activity; [10]
  percent inhibition of Factor 11 activity, relative to PBS control: 24%
Factor 11 activity; [11]
  percent inhibition of Factor 11 activity, relative to PBS control: 17%
Factor 11 activity; [12]
  percent inhibition of Factor 11 activity, relative to PBS control: 24%
Factor 11 activity; [13]
  percent inhibition of Factor 11 activity, relative to PBS control: 23%
Factor 11 activity; [14]
  percent inhibition of Factor 11 activity, relative to PBS control: 30%
Factor 11 activity; [15]
  percent inhibition of Factor 11 activity, relative to PBS control: 42%
Factor 11 activity; [16]
  percent inhibition of Factor 11 activity, relative to PBS control: 49%
Factor 11 activity; [17]
  percent inhibition of Factor 11 activity, relative to PBS control: 55%
Factor 11 activity; [18]
  percent inhibition of Factor 11 activity, relative to PBS control: 57%
Factor 11 activity; [19]
  percent inhibition of Factor 11 activity, relative to PBS control: 63%
Factor 11 activity; [20]
  percent inhibition of Factor 11 activity, relative to PBS control: 64%
Factor 11 activity; [21]
  percent inhibition of Factor 11 activity, relative to PBS control: 1%
Factor 11 activity; [22]
  percent inhibition of Factor 11 activity, relative to PBS control: 0%
Factor 11 activity; [23]
  percent inhibition of Factor 11 activity, relative to PBS control: 0%
Factor 11 activity; [24]
  percent inhibition of Factor 11 activity, relative to PBS control: 0%
fibrinogen; [3]
  fibrinogen levels: 232 mg/dL
fibrinogen; day 8, escalating dose regimen
  fibrinogen levels: 281 mg/dL
fibrinogen; [4]
  fibrinogen levels: 174 mg/dL
fibrinogen; [5]
  fibrinogen levels: 270 mg/dL
fibrinogen; [6]
  fibrinogen levels: 192 mg/dL
fibrinogen; [7]
  fibrinogen levels: 243 mg/dL
fibrinogen; [8]
  fibrinogen levels: 192 mg/dL
fibrinogen; [9]
  fibrinogen levels: 234 mg/dL
fibrinogen; [10]
  fibrinogen levels: 185 mg/dL
fibrinogen; [11]
  fibrinogen levels: 232 mg/dL
fibrinogen; [12]
  fibrinogen levels: 194 mg/dL
fibrinogen; [13]
  fibrinogen levels: 219 mg/dL
fibrinogen; [14]
  fibrinogen levels: 204 mg/dL
fibrinogen; [15]
  fibrinogen levels: 215 mg/dL
fibrinogen; [16]
  fibrinogen levels: 186 mg/dL
fibrinogen; [17]
  fibrinogen levels: 190 mg/dL
fibrinogen; [18]
  fibrinogen levels: 178 mg/dL
fibrinogen; [19]
  fibrinogen levels: 177 mg/dL
fibrinogen; [20]
  fibrinogen levels: 187 mg/dL
fibrinogen; [21]
  fibrinogen levels: 227 mg/dL
fibrinogen; [22]
  fibrinogen levels: 261 mg/dL
fibrinogen; [23]
  fibrinogen levels: 274 mg/dL
fibrinogen; [24]
  fibrinogen levels: 310 mg/dL
[1]; 2 weeks
  ALT: 67 IU/L
  AST: 72 IU/L
  Albumin: 3.6
  Bilirubin: 0.46 mg/dL
[1]; 4 weeks
  ALT: 58 IU/L
  AST: 88 IU/L
  Albumin: 3.5
  Bilirubin: 0.23 mg/dL
[1]; 6 weeks
  ALT: 102 IU/L
  AST: 97 IU/L
  Albumin: 3.1
  Bilirubin: 0.22 mg/dL
[2]; day 1, chronic dose regimen (*)
  body weights: 2665 g
[2]; day 1, escalating dose regimen
  body weights: 2572 g
[2]; [3]
  body weights: 2579 g
[2]; day 8, escalating dose regimen
  body weights: 2430 g
[2]; [4]
  body weights: 2607 g
[2]; [5]
  body weights: 2474 g
[2]; [6]
  body weights: 2661 g
[2]; [7]
  body weights: 2514 g
[2]; [8]
  body weights: 2667 g
[2]; [9]
  body weights: 2515 g
[2]; [10]
  body weights: 2656 g
[2]; [11]
  body weights: 2545 g
[2]; [12]
  body weights: 2670 g
[2]; [13]
  body weights: 2544 g
[2]; [14]
  body weights: 2679 g
[2]; [15]
  body weights: 2613 g
[2]; [16]
  body weights: 2629 g
[2]; [17]
  body weights: 2642 g
[2]; [18]
  body weights: 2769 g
[2]; [19]
  body weights: 2660 g
Platelet aggregation; day 15 (with ADP), chronic dose regimen (*)
  platelet aggregation: 14 Ohms
Platelet aggregation; day 15 (with ADP), escalating dose regimen
  platelet aggregation: 12 Ohms
Platelet aggregation; day 36 (with ADP), chronic dose regimen (*)
  platelet aggregation: 11.6 Ohms
Platelet aggregation; day 36 (with ADP), escalating dose regimen
  platelet aggregation: 16 Ohms
Platelet aggregation; day 43 (with collagen), chronic dose regimen (*)
  platelet aggregation: 21 Ohms
Platelet aggregation; day 43 (with collagen), escalating dose regimen
  platelet aggregation: 16 Ohms
Platelet aggregation; day 57 (with ADP), escalating dose regimen
  platelet aggregation: 18 Ohms
Platelet aggregation; day 64 (with collagen), escalating dose regimen
  platelet aggregation: 17 Ohms
Platelet aggregation; day 78 (with ADP), escalating dose regimen
  platelet aggregation: 9 Ohms
Platelet aggregation; day 85 (with ADP), escalating dose regimen
  platelet aggregation: 22 Ohms
Platelet aggregation; day 85 (with collagen), escalating dose regimen
  platelet aggregation: 26 Ohms
Platelet aggregation; day −5 (with collagen), chronic dose regimen (*)
  platelet aggregation: 21 Ohms
Platelet aggregation; day −5 (with collagen), escalating dose regimen
  platelet aggregation: 23 Ohms
